Legend:
[1] = target: cAMP-dependent protein kinase catalytic subunit alpha (Homo sapiens, UniProt P17612); assay: Inhibition of PKAa (unknown origin)
Influenza A virus [2] = assay: Antiviral activity against influenza A virus A/PR/8/34 strain incubated with MDCK cells assessed as reduction of viral RNA level equal to 1% of control level after 72 hrs by branched DNA assay; type: functional, organism-based; settings: A/Puerto Rico/8/1934(H1N1)
[3] = target: Tyrosine-protein kinase JAK2 (Homo sapiens, UniProt O60674); assay: Inhibition of JAK2 (unknown origin)
Chain of Tyrosine-protein kinase JAK2 (O60674 whole entry, canonical isoform): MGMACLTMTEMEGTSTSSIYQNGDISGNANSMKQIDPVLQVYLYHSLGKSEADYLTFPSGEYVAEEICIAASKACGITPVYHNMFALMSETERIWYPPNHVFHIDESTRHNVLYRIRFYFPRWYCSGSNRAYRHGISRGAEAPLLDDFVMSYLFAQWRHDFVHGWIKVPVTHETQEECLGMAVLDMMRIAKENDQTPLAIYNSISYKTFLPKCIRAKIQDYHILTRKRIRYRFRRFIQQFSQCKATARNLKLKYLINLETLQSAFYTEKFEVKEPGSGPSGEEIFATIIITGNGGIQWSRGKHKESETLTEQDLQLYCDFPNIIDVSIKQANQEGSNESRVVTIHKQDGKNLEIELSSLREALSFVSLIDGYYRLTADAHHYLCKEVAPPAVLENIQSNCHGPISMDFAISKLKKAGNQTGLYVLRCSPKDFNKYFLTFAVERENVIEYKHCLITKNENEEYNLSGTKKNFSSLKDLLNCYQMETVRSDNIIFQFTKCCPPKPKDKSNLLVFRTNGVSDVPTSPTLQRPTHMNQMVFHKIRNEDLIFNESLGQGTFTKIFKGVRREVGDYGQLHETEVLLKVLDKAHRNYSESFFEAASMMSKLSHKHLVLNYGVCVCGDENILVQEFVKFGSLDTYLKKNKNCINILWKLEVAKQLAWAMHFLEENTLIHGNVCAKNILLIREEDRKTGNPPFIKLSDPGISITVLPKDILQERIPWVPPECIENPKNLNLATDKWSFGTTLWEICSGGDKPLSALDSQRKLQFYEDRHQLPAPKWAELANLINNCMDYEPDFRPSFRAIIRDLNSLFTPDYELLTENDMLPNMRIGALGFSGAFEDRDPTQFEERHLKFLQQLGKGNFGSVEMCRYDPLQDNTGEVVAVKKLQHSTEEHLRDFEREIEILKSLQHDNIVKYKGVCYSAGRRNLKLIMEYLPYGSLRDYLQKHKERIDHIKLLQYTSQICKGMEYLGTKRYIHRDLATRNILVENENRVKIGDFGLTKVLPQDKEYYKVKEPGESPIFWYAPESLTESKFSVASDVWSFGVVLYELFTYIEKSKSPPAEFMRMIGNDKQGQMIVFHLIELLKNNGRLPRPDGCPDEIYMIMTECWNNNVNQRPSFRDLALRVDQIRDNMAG

[4] = target: Phosphatidylinositol 4,5-bisphosphate 3-kinase catalytic subunit gamma isoform (Homo sapiens, UniProt P48736); assay: Inhibition of PI3Kgamma (unknown origin)
[5] = target: T1, Receptor-type tyrosine-protein kinase FLT3 (Homo sapiens, UniProt P36888); assay: Inhibition of FLT3 (unknown origin)
T1 sequence (P36888 whole entry): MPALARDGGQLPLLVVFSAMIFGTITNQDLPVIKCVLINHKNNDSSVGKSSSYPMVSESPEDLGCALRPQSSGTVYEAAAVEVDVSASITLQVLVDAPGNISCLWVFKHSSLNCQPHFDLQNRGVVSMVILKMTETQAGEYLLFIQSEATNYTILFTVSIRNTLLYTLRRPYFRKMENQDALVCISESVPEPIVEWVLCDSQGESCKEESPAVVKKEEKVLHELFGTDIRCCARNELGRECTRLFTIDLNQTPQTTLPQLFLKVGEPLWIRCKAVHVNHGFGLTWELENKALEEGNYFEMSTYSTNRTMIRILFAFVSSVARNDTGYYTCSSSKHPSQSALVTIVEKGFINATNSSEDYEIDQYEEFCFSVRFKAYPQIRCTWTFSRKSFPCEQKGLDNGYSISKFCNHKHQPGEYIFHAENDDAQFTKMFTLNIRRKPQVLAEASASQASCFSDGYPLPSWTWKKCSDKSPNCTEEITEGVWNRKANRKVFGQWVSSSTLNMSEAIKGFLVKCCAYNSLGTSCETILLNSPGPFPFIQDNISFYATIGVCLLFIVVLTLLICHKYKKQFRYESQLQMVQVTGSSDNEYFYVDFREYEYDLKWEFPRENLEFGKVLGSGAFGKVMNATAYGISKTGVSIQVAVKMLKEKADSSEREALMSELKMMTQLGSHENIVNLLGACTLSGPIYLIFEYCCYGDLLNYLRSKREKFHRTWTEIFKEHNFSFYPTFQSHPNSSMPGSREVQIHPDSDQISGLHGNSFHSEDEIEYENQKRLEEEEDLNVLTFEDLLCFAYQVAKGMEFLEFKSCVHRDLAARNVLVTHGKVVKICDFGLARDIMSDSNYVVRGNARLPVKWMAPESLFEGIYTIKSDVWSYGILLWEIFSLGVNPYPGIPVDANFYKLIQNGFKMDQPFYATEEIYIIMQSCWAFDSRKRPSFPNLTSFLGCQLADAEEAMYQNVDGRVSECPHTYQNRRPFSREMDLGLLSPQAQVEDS

Influenza A virus [6] = assay: Antiviral activity against Influenza A virus A/PR/8/34 strain incubated with MDCK cells assessed as cell protection after 72 hrs by phenotypic cell protection assay; type: functional, organism-based; settings: A/Puerto Rico/8/1934(H1N1)
[7] = target: Phosphatidylinositol 4,5-bisphosphate 3-kinase catalytic subunit alpha isoform (Homo sapiens, UniProt P42336); assay: Inhibition of PI3Kalpha (unknown origin)
Chain of Phosphatidylinositol 4,5-bisphosphate 3-kinase catalytic subunit alpha isoform (P42336 whole entry, canonical isoform): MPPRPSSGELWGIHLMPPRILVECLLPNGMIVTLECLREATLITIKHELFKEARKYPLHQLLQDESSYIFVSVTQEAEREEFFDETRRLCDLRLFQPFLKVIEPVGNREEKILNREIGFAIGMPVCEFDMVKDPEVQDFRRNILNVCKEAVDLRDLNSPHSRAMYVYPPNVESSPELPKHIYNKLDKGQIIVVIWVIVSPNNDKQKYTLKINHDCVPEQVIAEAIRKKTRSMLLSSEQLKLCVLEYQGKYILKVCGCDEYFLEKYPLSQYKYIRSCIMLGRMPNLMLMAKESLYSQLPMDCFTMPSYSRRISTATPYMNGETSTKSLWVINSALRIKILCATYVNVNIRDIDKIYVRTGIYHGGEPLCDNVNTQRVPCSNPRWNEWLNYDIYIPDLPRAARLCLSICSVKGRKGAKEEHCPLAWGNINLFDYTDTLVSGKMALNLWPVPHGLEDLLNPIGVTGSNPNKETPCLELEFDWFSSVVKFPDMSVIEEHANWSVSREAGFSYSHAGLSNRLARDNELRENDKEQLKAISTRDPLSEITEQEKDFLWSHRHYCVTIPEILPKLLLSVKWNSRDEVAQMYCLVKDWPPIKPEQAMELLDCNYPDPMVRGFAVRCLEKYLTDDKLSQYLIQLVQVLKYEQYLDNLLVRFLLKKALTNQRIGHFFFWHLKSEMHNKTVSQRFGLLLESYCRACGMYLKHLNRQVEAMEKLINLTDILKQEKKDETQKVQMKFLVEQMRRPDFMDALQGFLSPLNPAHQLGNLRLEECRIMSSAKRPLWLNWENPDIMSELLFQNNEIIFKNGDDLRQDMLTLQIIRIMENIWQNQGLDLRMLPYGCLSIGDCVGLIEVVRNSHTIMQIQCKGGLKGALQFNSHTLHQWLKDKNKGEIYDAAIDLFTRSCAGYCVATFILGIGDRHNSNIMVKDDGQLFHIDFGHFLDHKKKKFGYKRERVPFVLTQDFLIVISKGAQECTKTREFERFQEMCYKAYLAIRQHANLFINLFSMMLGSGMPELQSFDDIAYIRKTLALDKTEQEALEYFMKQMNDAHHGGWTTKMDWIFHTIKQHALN

[8] = target: Tyrosine-protein kinase SYK (Homo sapiens, UniProt P43405); assay: Inhibition of SYK (unknown origin)
[9] = target: T2, Interleukin-1 receptor-associated kinase 4 (Homo sapiens, UniProt Q9NWZ3); assay: Inhibition of IRAK4 (unknown origin)
T2 sequence (Q9NWZ3 whole entry): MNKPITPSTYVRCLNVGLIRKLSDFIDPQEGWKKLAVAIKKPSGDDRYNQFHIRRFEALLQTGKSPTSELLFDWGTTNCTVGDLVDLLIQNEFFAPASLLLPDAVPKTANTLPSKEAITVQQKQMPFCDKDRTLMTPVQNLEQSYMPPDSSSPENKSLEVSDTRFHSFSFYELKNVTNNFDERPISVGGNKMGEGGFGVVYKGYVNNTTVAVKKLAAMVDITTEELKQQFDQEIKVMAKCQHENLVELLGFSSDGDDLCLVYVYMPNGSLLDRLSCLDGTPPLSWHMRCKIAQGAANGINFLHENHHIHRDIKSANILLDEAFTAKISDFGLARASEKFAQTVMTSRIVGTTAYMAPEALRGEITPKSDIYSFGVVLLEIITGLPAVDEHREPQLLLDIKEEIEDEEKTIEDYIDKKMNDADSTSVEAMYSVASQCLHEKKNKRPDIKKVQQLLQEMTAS

[10] = target: Hepatocyte growth factor receptor (Homo sapiens, UniProt P08581); assay: Inhibition of MET (unknown origin)
Chain of Hepatocyte growth factor receptor (P08581 whole entry): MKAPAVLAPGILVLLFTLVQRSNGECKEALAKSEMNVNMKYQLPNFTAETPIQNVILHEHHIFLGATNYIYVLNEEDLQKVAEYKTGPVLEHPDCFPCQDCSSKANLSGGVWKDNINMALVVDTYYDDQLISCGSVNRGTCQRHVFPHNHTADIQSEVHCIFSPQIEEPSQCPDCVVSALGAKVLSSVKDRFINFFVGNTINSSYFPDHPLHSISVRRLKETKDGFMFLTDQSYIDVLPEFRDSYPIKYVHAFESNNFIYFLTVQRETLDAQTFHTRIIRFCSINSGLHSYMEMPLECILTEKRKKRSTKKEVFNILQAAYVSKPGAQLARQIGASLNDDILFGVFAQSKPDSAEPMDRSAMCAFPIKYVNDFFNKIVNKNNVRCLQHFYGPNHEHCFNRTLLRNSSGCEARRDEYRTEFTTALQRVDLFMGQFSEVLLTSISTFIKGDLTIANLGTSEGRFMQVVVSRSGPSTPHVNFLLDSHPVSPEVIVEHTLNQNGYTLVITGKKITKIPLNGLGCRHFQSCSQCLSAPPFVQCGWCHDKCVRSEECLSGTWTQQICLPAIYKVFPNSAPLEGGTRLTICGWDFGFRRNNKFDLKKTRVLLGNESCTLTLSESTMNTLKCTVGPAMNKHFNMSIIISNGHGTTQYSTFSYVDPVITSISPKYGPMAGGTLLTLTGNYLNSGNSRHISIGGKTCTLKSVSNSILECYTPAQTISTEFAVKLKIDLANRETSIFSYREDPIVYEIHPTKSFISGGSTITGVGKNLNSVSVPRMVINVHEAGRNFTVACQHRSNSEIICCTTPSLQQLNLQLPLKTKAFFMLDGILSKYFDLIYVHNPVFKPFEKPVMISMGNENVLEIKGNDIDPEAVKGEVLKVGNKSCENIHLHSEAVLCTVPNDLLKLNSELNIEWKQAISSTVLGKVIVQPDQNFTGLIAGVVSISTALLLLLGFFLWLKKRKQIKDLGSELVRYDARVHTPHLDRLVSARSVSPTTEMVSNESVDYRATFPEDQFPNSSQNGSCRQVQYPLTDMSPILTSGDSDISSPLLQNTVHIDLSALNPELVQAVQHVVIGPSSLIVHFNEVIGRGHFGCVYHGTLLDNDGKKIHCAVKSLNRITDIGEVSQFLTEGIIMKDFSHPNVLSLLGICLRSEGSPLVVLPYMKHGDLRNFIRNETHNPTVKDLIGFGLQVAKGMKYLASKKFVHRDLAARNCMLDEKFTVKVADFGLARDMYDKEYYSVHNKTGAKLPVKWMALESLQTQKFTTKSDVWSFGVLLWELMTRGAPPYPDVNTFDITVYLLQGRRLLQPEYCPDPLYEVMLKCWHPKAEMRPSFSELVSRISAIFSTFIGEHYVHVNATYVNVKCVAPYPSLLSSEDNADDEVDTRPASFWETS

[11] = target: Mitogen-activated protein kinase 10 (Homo sapiens, UniProt P53779); assay: Inhibition of JNK3 (unknown origin)
[12] = target: Glycogen synthase kinase-3 (Homo sapiens, UniProt P49840+P49841); assay: Inhibition of GSK3 (unknown origin); type: protein assay
[13] = target: Serine/threonine-protein kinase PLK1 (Homo sapiens, UniProt P53350); assay: Inhibition of PLK (unknown origin)
Chain of Serine/threonine-protein kinase PLK1 (P53350 whole entry): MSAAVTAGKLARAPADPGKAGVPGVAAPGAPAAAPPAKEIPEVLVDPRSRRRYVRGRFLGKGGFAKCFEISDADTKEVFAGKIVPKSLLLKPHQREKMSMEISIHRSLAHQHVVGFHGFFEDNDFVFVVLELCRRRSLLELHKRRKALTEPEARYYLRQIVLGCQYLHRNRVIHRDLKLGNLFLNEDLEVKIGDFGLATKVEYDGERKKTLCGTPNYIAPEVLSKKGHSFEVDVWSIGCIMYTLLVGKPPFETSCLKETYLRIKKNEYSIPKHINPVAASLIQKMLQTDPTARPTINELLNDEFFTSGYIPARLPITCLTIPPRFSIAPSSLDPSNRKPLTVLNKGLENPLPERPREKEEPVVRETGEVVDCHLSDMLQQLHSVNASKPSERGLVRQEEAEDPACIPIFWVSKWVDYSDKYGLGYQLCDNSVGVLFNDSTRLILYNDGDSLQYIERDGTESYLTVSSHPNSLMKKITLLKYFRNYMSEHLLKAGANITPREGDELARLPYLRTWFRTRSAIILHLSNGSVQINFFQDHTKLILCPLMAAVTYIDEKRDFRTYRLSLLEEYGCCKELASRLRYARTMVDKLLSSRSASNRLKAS

[14] = target: Vascular endothelial growth factor receptor 2 (Homo sapiens, UniProt P35968); assay: Inhibition of KDR (unknown origin)
[15] = target: Cyclin-dependent kinase 2 (Homo sapiens, UniProt P24941); assay: Inhibition of CDK2 (unknown origin)
[16] = target: Rho-associated protein kinase (Homo sapiens, UniProt O75116+Q13464); assay: Inhibition of ROCK (unknown origin); type: protein-complex assay
[17] = target: Phosphatidylinositol 4,5-bisphosphate 3-kinase catalytic subunit beta isoform (Homo sapiens, UniProt P42338); assay: Inhibition of PI3Kbeta (unknown origin)
[18] = target: Proto-oncogene tyrosine-protein kinase Src (Homo sapiens, UniProt P12931); assay: Inhibition of SRC (unknown origin)
Chain of Proto-oncogene tyrosine-protein kinase Src (P12931 2-536 limits assumed): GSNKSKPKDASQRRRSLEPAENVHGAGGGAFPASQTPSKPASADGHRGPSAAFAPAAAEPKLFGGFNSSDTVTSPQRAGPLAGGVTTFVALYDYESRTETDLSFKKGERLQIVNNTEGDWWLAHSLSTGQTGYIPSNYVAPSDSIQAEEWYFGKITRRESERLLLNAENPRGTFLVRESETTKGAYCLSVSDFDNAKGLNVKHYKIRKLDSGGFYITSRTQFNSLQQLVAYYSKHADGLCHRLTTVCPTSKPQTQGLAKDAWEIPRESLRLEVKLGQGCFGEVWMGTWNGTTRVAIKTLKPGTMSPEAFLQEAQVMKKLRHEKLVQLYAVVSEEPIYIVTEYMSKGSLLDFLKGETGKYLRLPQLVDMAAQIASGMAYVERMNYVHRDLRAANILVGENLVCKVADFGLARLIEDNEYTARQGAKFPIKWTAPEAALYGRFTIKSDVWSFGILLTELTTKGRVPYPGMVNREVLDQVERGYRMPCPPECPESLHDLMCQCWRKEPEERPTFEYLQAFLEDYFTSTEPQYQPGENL

[19] = target: T3, Phosphatidylinositol 4,5-bisphosphate 3-kinase catalytic subunit delta isoform (Homo sapiens, UniProt O00329); assay: Inhibition of PI3Kdelta (unknown origin)
T3 sequence (O00329 whole entry): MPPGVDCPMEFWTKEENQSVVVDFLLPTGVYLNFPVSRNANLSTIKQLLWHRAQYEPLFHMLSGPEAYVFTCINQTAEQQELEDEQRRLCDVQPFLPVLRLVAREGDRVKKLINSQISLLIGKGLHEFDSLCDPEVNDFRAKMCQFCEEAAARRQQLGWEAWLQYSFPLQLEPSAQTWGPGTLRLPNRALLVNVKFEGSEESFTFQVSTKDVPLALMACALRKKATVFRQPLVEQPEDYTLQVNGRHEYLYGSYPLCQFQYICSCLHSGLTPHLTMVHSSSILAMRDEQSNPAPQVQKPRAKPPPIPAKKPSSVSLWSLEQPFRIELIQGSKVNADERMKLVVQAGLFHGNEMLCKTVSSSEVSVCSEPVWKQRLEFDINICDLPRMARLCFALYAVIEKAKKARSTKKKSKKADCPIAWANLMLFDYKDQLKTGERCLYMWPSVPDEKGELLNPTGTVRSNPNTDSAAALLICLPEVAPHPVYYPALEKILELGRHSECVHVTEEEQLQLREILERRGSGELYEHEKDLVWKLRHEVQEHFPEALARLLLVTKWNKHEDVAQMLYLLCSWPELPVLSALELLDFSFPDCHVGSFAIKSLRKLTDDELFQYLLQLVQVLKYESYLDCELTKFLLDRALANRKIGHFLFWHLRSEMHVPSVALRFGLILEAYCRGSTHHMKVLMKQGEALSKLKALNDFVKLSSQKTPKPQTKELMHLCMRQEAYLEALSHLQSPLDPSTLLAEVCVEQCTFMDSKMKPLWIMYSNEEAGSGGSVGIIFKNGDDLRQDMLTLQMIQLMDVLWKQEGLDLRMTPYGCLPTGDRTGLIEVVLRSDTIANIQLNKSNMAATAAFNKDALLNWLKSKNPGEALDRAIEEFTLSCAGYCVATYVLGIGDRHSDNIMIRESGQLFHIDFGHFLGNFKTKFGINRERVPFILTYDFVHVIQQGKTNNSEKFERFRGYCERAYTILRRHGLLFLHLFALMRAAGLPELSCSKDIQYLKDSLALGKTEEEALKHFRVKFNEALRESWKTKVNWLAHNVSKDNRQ

Row | Structure (SMILES) | Ki [1] | EC50 (Influenza A virus [2]) | EC99 (Influenza A virus [2]) | Ki [3] | Ki [4] | Ki [5] | IC50 (Influenza A virus [6]) | Ki [7] | Ki [8] | Ki [9] | Ki [10] | Ki [11] | Ki [12] | Ki [13] | Ki [14] | Ki [15] | Ki [16] | Ki [17] | Ki [18] | Ki [19]
1 | Cc1noc([C@H]2C3CCC(CC3)[C@@H]2Nc2nc(-c3c[nH]c4ncc(F)cc34)ncc2F)n1 (mixture of isomers) | 1100 nM | 120 nM | 1.2 µM | > 4000 nM | 1400 nM | 970 nM | 210 nM | > 4000 nM | > 4000 nM | > 4000 nM | > 4000 nM | > 4000 nM | 980 nM | > 4000 nM | > 4000 nM | > 4000 nM | > 4000 nM | 2300 nM | 2400 nM | 2500 nM
2 | O=c1nc([C@H]2C3CCC(CC3)[C@@H]2Nc2nc(-c3c[nH]c4ncc(F)cc34)ncc2F)[nH]o1 (mixture of isomers) | > 4000 nM | 29 nM | 0.14 µM | > 4000 nM | > 4000 nM | > 4000 nM |  | > 4000 nM | > 4000 nM | > 4000 nM | > 4000 nM | > 4000 nM | > 4000 nM | > 4000 nM | > 4000 nM | > 4000 nM | > 4000 nM | > 4000 nM | > 4000 nM | > 4000 nM
3 | CC(=O)NS(=O)(=O)[C@H]1C2CCC(CC2)[C@@H]1Nc1nc(-c2c[nH]c3ncc(F)cc23)ncc1F (mixture of isomers) | > 4000 nM | 9 nM | 0.16 µM | > 4000 nM | 1500 nM | 2800 nM | 19 nM | > 4000 nM | > 4000 nM | > 4000 nM | > 4000 nM | > 4000 nM | 310 nM | > 4000 nM | > 4000 nM | > 4000 nM | > 4000 nM | > 4000 nM | > 4000 nM | > 4000 nM
4 | CNC(=O)[C@H]1C2CCC(CC2)[C@@H]1Nc1nc(-c2c[nH]c3ncc(F)cc23)ncc1F (mixture of isomers) | > 4000 nM | 35 nM | 0.31 µM | 1100 nM | > 4000 nM | 1400 nM | 14 nM | > 4000 nM | > 4000 nM | > 4000 nM | > 4000 nM | > 4000 nM | 230 nM | > 4000 nM | > 4000 nM | > 4000 nM | > 4000 nM | > 4000 nM | 2500 nM | > 4000 nM
5 | NS(=O)(=O)[C@H]1C2CCC(CC2)[C@@H]1Nc1nc(-c2c[nH]c3ncc(F)cc23)ncc1F (mixture of isomers) | 490 nM | 6 nM | 0.064 µM | 840 nM | 1100 nM | 1200 nM | 6 nM | > 4000 nM | > 4000 nM | > 4000 nM | > 4000 nM | > 4000 nM | 85 nM | 2100 nM | 1900 nM | > 4000 nM | 980 nM | > 4000 nM | 3100 nM | 1900 nM
6 | OCC(O)[C@H]1C2CCC(CC2)[C@@H]1Nc1nc(-c2c[nH]c3ncc(F)cc23)ncc1F (mixture of isomers) | 230 nM | 41 nM | 0.18 µM | 390 nM | 710 nM | 160 nM | 68 nM | 2600 nM | 3400 nM | 2700 nM | > 4000 nM | > 4000 nM | 78 nM | 510 nM | 2400 nM | > 4000 nM | 1500 nM | 2500 nM | 3500 nM | 1600 nM
7 | O=C(O)[C@H]1C2CCC(CC2)[C@@H]1Nc1nc(-c2c[nH]c3ncc(F)cc23)ncc1F [PIMODIVIR] |  | 2 nM | 0.011 µM | > 4000 nM |  | > 4000 nM | 2 nM |  |  |  |  |  | 1600 nM |  |  |  |  |  |  | 
8 | CS(=O)(=O)[C@H]1C2CCC(CC2)[C@@H]1Nc1nc(-c2c[nH]c3ncc(F)cc23)ncc1F (mixture of isomers) | 1500 nM | 2 nM | 2.2 µM | 740 nM | 1200 nM | 840 nM | 230 nM | > 4000 nM | > 4000 nM | > 4000 nM | > 4000 nM | > 4000 nM | 77 nM | > 4000 nM | 1500 nM | > 4000 nM | 2700 nM | > 4000 nM | 3100 nM | 3300 nM

— ChEMBL document CHEMBL3399966, “Isosteric replacements of the carboxylic acid of drug candidate VX-787: Effect of charge on antiviral potency and kinase activity of azaindole-based influenza PB2 inhibitors” (Bioorg Med Chem Lett, 2015)
